Source: the NIST ThermoML archive (doi:10.1007/s10765-009-0566-6)

Assay: refractive index (Na D-line) (dimensionless); mn = molality of the nth substance listed, in mol/kg
Conditions: 101 kPa, Liquid, Standard Abbe refractometry

CCCCCn1cc[n+](C)c1.[Cl-] [1-methyl-3-pentylimidazolium chloride] + O
refractive index
Conditions	298.15 K	308.15 K	318.15 K	328.15 K
m1 = 0.014	1.3331	1.3318	1.3302	1.3282
m1 = 0.0263	1.3334	1.3321	1.3305	1.3284
m1 = 0.0391	1.3338	1.3324	1.3308	1.3288
m1 = 0.0518	1.3342	1.3328	1.3313	1.3291
m1 = 0.0634	1.3344	1.3331	1.3316	1.3294
m1 = 0.084	1.3351	1.3339	1.3322	1.3305
m1 = 0.1007	1.3358	1.3344	1.3327	1.3309
m1 = 0.1369	1.3367	1.3357	1.3336	1.3316
m1 = 0.1784	1.3379	1.3367	1.3349	1.3328
m1 = 0.2198	1.3392	1.3378	1.3359	1.3339
m1 = 0.2765	1.3408	1.3397	1.3377	1.3356
m1 = 0.3517	1.343	1.3416	1.3397	1.3376
m1 = 0.4043	1.3443	1.343	1.3411	1.3389
m1 = 0.5014	1.347	1.3457	1.3437	1.3419
m1 = 0.5758	1.3489	1.3475	1.3457	1.344
m1 = 0.8464	1.3558	1.3547	1.3523	1.3505
m1 = 1.002	1.3596	1.3579	1.3557	1.3537
m1 = 1.376	1.3679	1.3658	1.3639	1.3619
m1 = 1.797	1.3764	1.3745	1.3721	1.3697
